What was measured:
Naïve SKG CD4+ T cells = assay: ex vivo Th17 differentiation assay in Th17 inflammatory conditions; format: cell-based, mouse; details: for FoxP3 expression in CD4+ T cells: Th17 polarizing cytokines, four days
Experimental: To test the effect of ATRA on enhancing Treg cells, an ex vivo differentiation and stabilization assay in Th17 inflammatory conditions using cytokine supplementation was performed (FIG. 1A). Naïve SKG CD4+ T cells were isolated to consistently obtain greater than 90% CD4+CD44−CD62L+ post-enrichment (data not shown). Subsequently, these cells were stimulated with anti-mouse CD3 (αCD3) and CD28 (αCD28) antibodies along with Th17 polarizing cytokines IL-6, TGF-β1, IL-1β, and IL-23, and immunophenotypes were analyzed after four days. In a subset of conditions, ATRA was added to the T cell culture medium, ranging from 10 pM to 10 nM. […] In addition to reduced expression of IL-17A, the fraction of RORγt+CD4+ T cells was reduced in 1 nM ATRA conditions (53.3±7.9%) relative to cells exposed 0 nM ATRA (73.3±3.9%) (FIG. 1D).
(§1) The bioactivity of released ATRA was assessed following the experimental schematic outlined in FIG. 1A with supernatant collected at day 1, 14 and 28 and replicates diluted to the expected joint concentration based on delivery of 2 μg ATRA-encapsulated PLGA MPs injected in ˜20 μL of synovial fluid.

SKG FoxP3eGFP Treg cells = assay: Treg cell stability (destabilization) assay; format: cell-based, mouse; details: 1 nM ATRA, IL6, 72 hours
Experimental: The loss of FoxP3 expression correlated with Treg cell transitioning to a Th17-like exTreg cell phenotype, with 23.0±1.7% and 13.3±1.5% of cells without ATRA expressing RORγt and IL-17, respectively, compared to 11.6±1.8% and 5.7±1.1% of cells cultured with 1 nM ATRA (FIGS. 1G and H).
as §1

[1] = tested on: healthy C57BL/6J (B6) mice; assay: OVA immunization in healthy C57BL/6J mice; format: in vivo, mouse; details: spleen; daily i.p. administration
Text: To quantify the effect of IA ATRA-encapsulated PLGA MPs on arthritis-irrelevant T cell suppression we leveraged OVA-specific tetramers available for quantifying T cells in H2b-background mice and conducted the aforementioned immunization study in healthy C57BL/6J (B6) mice (FIG. 8D). Systemically administered ATRA was delivered as a daily intraperitoneal (i.p.) injection to assess the effect of systemic exposure.

CD4+ T cells = assay: 24-hour pretreatment then transfer to Th17 inducing conditions; format: cell-based; details: 24-hour pretreatment 1 nM ATRA, washed
Experimental: FIG. 10A depicts the quantification of FOXP3 expression in CD4+ T cells after 24-hour pretreatment with either nothing (None), 1 nM ATRA (ATRA), or IL-2, followed by removal and washing of the cells, and transfer to Th17 inducing conditions. FIG. 10B depicts quantification of IL-17 expression in CD4+ T cells after a 24-hour pretreatment with either nothing (None), 1 nM ATRA (ATRA), or IL-2, followed by removal and washing of the cells, and transfer to Th17 inducing conditions. Pre-treatment of the CD4+ T cells with ATRA increases FOXP3 expression and reduces IL-17 expression after exposure to Th17 inducing conditions.

[2] = tested on: chromatin of cells cultured in Th17 inducing conditions; assay: Assay for Transposase Accessible Chromatin (ATAC) sequencing; format: cell-based
Experimental: Assay for Transposase Accessible Chromatin (ATAC) sequencing assay uses a hyperactive protein to bind and snip DNA in open chromatin regions to probe for the parts of DNA are accessible for transcription. The ATAC assay was performed to determine whether ATRA causes epigenetic modifications to cellular DNA to influence the accessibly of DNA for transcription and, in turn, modulating what a cell's “default” state/programs are. Quantification of differentially accessible regions (DARs) is shown by counts per peak between cells cultured in Th17 inducing conditions with (ATRA Treated) or without (Th17 Control) 1 nM ATRA. (FIG. 11A).
FIG. 11C is a heatmap of all DARs grouped in rows by those enriched in the ATRA treated group or those enriched in the Tb17 Control group. Heatmapping was performed by determining the z-score of the DAR in a given sample as compared to the row. A Genome browser plot for Th17 and Treg associated genes is shown (FIG. 11D). The size of the peaks corresponds to the number of reads, so the bigger the peaks are the more accessible that region of DNA is.

rodents = details: cited from earlier work
[3] = tested on: SKG mice with mannan-induced arthritis; assay: IA treatment of established SKG arthritis (clinical score, ankle thickness); format: in vivo, mouse
Experimental: To assess the feasibility of modulating established SKG arthritis. ATRA-encapsulated PLGA MPs were injected into the tibial/tarsal ankle joint of ten SKG mice with middle stage arthritis, prior to the development of severe symptoms. PLGA-Blank MPs were injected into the tibial/tarsal ankle joint of eleven SKG mice with middle stage arthritis. Arthritis onset was synchronized using inter-peritoneal (IP) mannan injection. ATRA-encapsulated PLGA MPs treatment was administered after 14 days, corresponding to established SKG arthritis (FIG. 3A). To track MP degradation in vivo, cyanine-5 (Cy5) conjugated PLGA was incorporated to generate fluorescently labeled Cy5 PLGA MPs and PLGA MPs without ATRA (PLGA-Blank MPs). The PLGA-Blank MPs were imaged using a live animal. In Vivo Imaging System (IVIS). […] Based on fluorescence attenuation, MPs remained localized in the joint after injection and steadily degraded over the course of the study (FIG. 3B). Arthritis progression was quantified using bi-weekly clinical scoring between the treatment groups. […] The improvement in clinical score and ankle thickness measurements were quantified in both the ipsilateral and contralateral joints in the above described studies (FIG. 3H-J, FIGS. 6B and C).

arthritic SKG mice = assay: subcutaneous administration to arthritic SKG mice; format: in vivo, mouse; details: subcutaneously between the scapula
Experimental: The efficacy of subcutaneously administered ATRA-encapsulated PLGA MPS in treating SKG mice was assessed to determine whether ATRA-encapsulated PLGA MPS act via systemic release, in which case subcutaneous ATRA-encapsulated PLGA MPS treatment would improve disease scores, or if ATRA-encapsulated PLGA MPS treatment acts locally, in which case its delivery to the intra-articular space would improve disease scores. ATRA-encapsulated PLGA MPS, dose-matched Bolus ATRA in corn oil, and vehicle (corn oil) were administered to arthritic SKG subcutaneously between the scapula of SKG mice (FIGS. 9A-B).

With `CC1=C(/C=C/C(C)=C/C=C/C(C)=C/C(=O)O)C(C)(C)CCC1` [ATRA, all-trans retinoic acid] the “fraction of IL-17A+CD4+ T cells” value (Naïve SKG CD4+ T cells; 10 pM ATRA) was 9.5±1.7%, the “fraction of IL-17A+CD4+ T cells” value (Naïve SKG CD4+ T cells; 100 pM ATRA) was 7.2±1.5% and the “fraction of IL-17A+CD4+ T cells” value (Naïve SKG CD4+ T cells; 1 nM ATRA) was 5.4±1.9%. The “fraction of RORγt+CD4+ T cells” value (Naïve SKG CD4+ T cells; 1 nM ATRA) was 53.3±7.9%, the “fraction of IL-17A+CD4+ T cells” value (Naïve SKG CD4+ T cells; 10 nM ATRA) was 5.4±2.3% and the “FoxP3 expression in CD4+ T cells” value (Naïve SKG CD4+ T cells; ATRA above 100 pM) was 40.0±3.4%. For the same molecule, the “FoxP3 expression in CD4+ T cells” value (Naïve SKG CD4+ T cells; ATRA below 100 pM) was 11.2±2.3%, the “cells expressing IL-17” value (SKG FoxP3eGFP Treg cells) was 5.7±1.1% and the “cells expressing RORγt” value (SKG FoxP3eGFP Treg cells) was 11.6±1.8%. The “cells retaining FoxP3eGFP expression” value (SKG FoxP3eGFP Treg cells) was 71.6±5.5%, the “OVA-specific CD4+ T cells (tetramer staining)” value [1] was “significantly lower” and the FOXP3 expression (CD4+ T cells) was “increases”. The IL-17 expression (CD4+ T cells) was “reduces”, the “regions in the DNA more open in the ATRA treated cells” value ([2]; 1 nM ATRA versus Th17 control) was 7957 and the “accessibility of FoxP3 locus” value ([2]; 1 nM ATRA, genome browser plot) was “promotes accessibility”. The “regions in the DNA more open in the Th17 control” value ([2]; Th17 control versus 1 nM ATRA) was 10316 and the “doses associated with toxicity” value (rodents) was over 14 mg/kg.
With `CC1=C(/C=C/C(C)=C/C=C/C(C)=C/C(=O)O)C(C)(C)CCC1` [bolus ATRA, all-trans retinoic acid] the “severity of arthritis / clinical benefit” value ([3]; 2 μg IA MPs versus dose-matched IA bolus) was “no clinical benefit”, the “clinical scores in ipsilateral and contralateral ankles” value ([3]; dose-matched IA bolus in corn oil) was “increased comparably” and the ankle swelling (arthritic SKG mice) was “Neither bolus ATRA nor ATRA-encapsulated PLGA MPs provided improvement”. The clinical score (arthritic SKG mice) was “Neither bolus ATRA nor ATRA-encapsulated PLGA MPs provided improvement”.
